Reference: patent US20240366558A1, “TREATING LONG COVID-19 WITH UROLITHINS” (Amazentis SA, priority 2021, published 2024)

What was measured:
[1] = system: Long COVID; test: Patients afflicted with Long COVID administered 500 mg Mitopure (Urolithin A); format: in vivo, human; settings: three Long COVID patients, patient-indicated
Protocol: Three patients afflicted with Long COVID were administered 500 mg Mitopure™ (Urolithin A). Each patient indicated improvement in symptoms including reduced fatigue and improved muscle function.

[2] = system: human PBMCs; test: RNA-seq transcriptomic analysis / GSEA of PBMCs from healthy elderly supplemented with Urolithin A; format: in vivo; settings: 500 mg/day for 28 days, end of treatment vs baseline, placebo-filtered
Protocol: RNA was extracted from frozen human PBMCs and quality of extraction controlled with Agilent Fragment Analyzer System. RNA-seq library was prepared as strand-specific cDNA library, after the following steps: Purification of poly-A containing mRNA molecules; mRNA fragmentation; Random primed cDNA synthesis (strand-specific); Adapter ligation and adapter specific PCR amplification. RNA-seq run was performed with the NovaSeq6000 using S4 flowcells with 2×150 bp giving at least 30 million read pairs per sample
The RNA-Seq reads were aligned to the reference human transcriptome using Bowtie generating genome/transcriptome alignments. TopHat identifid the potential exon-exon splice junctions of the initial alignment. Then Cufflinks identified and quantified the transcripts from the preprocessed RNA-Seq alignment assembly. After this, Cuffmerge merged the identified transcript pieces to full length transcripts and annotates the transcripts based on the given annotations. Finally, merged transcripts from two or more samples/conditions were compared, using Cuffdiff to determine the differential expression levels at transcript and gene level including a measure of significance between samples/conditions.
Gene set enrichment analysis (GSEA) was conducted using R package clusterProfiler, v. 3.18.068. Enrichments of Gene Ontology (GO) Biological Process (BP) was investigated. All the genes subjected to the DE analysis and that passed the independent filtering of DEseq2 were ranked by shrunk log 2 fold change values and used as input data for the analysis. Ensembl IDs of the genes were converted to Entrez IDs for the analysis using biomaRt, v. 2.46. Minimum and maximum genes et sizes were set to 15 and 500, respectively. In order to adjust for the placebo effect, the GSEA results of Urolithin A at 500 mg were filtered to exclude enriched terms (p-value <0.05) obtained from the GSEA of the Placebo DEGs. Key pathways were visualised as bar plots ranked by Normalized Enrichment score (NES).
RNA-seq transcriptomic analysis was performed in healthy elderly supplemented with either Urolithin A (UA) at 500 mg/day or Placebo for 28 days. Peripheral blood mononuclear cells (PBMCs) were isolated and collected at baseline and at the end of the study. RNA was extracted from these subjects and used to perform RNA-seq and determine biological pathways modulated specifically by Urolithin A, but not Placebo, comparing end-of treatment to baseline

## O=c1oc2cc(O)ccc2c2ccc(O)cc12 [Urolithin A, urolithin A]
[1]
  fatigue: reduced
  muscle function: improved
  symptoms: improvement
[2]
  Gene Ontology gene set "mitochondrial gene expression": up-regulated
  Gene Ontology gene set "mitochondrial respiratory chain complex assembly": up-regulated
  Gene Ontology gene set "neutrophil activation": down-regulated
  Gene Ontology gene set "oxidative phosphorylation": up-regulated
  Gene Ontology gene set "regulation of response to cytokine stimulus": down-regulated
